Data on one compound can be found in US5364623A, “Antibiotic produced by Bacillus subtilis ATCC 55422 capable of inhibiting bacteria” (Bristol-Myers Squibb Company, priority 1993, dated 1994).

Test [1] concerns Escherichia coli K-10. Kind of test: MIC, liquid broth tube dilution assay, E. coli K-10. The class given is cell-based. Particulars: H108 medium, 37° C., 6-7 hours. On the procedure:
(§1) (1) Determination of the minimum concentration of bacillaene required for total inhibition of growth (MIC) was performed using liquid H108 medium containing Bacto-Tryptone (10g); Bacto-yeast extract (5 g); NaCl (5 g); and distilled water (1 liter). The assays were performed in 13×100 mm glass tubes in a final volume of 0.5 ml. Two fold dilutions of the compound were utilized. The cultures were incubated at 37° C. in a test-tube rack on a shaker. Presence of turbidity was used as an indicator of growth. The tubes were read after 6-7 hours of incubation.

For test [2], the system named is Escherichia coli SGB-888. Kind of test: MIC, liquid broth tube dilution assay, E. coli SGB-888. The settings on record: H108 medium, 37° C., 6-7 hours. It counts as cell-based. On the procedure: as §1
The test system of test [3] is Escherichia coli SGB-10857. The experiment in a line: MIC, liquid broth tube dilution assay, E. coli SGB-10857. The class given is cell-based. Particulars: H108 medium, 37° C., 6-7 hours. The protocol:
as §1

In test [4] the test system is Escherichia coli BAS-2006. Kind of test: MIC, liquid broth tube dilution assay, E. coli BAS-2006. It counts as cell-based. The settings on record: H108 medium, 37° C., 6-7 hours. The protocol:
as §1

The test system of test [5] is Escherichia coli impB. Kind of test: MIC, liquid broth tube dilution assay, E. coli impB. The class given is cell-based. The settings on record: H108 medium, 37° C., 6-7 hours. The protocol:
as §1

Test [6] concerns Escherichia coli. The experiment in a line: MIC, liquid broth tube dilution, E. coli strains overall. The class given is cell-based. The protocol:
as §1

The subject of test [7] is Procaryotic in vitro transc.-transl. sys. The experiment in a line: In vitro protein synthesis, procaryotic transcription-translation coupled system (35S incorporation). The class given is biochemical. The text has this: A prokaryotic in vitro transcription-translation coupled system was used for these experiments (Promega Corporation, 2800, Woods Hollow Road, Madison, Wis.).

Test [8] deals with Rabbit reticulocyte in vitro trans. sys. The experiment in a line: In vitro protein synthesis, eucaryotic (rabbit reticulocyte) translation system. The class given is biochemical.
Test [9] deals with Saccharomyces cervesiae. The experiment in a line: Growth of eukaryotic cells. It counts as cell-based.
For test [10], the system named is Staphylococcus aureus SC-2400. Kind of test: Agar diffusion, S. aureus SC-2400. The class given is cell-based. Particulars: 25 μg per well, overnight at 37° C. On the procedure:
(§2) (3) The effect of bacillaene on a wide spectrum of bacteria was determined using the agar diffusion method. The bacteria to be tested were grown in […] broth overnight at 37° C. This culture was used to inoculate […] agar using a standard pour plate method. A 1% inoculum of the overnight culture was used. Wells of 2 mm diameter were punched in the agar and bacillaene (25 μg) was loaded in each well. The plates were incubated overnight at 37° C. and lack of growth around the agar well was scored as inhibition by bacillaene of the growth of the organism.
On the technique in general: Agar diffusion results depend on both activity and mobility in agar.

The subject of test [11] is Staphylococcus aureus 209P. The experiment in a line: Agar diffusion, S. aureus 209P. The class given is cell-based. The settings on record: 25 μg per well, overnight at 37° C. On the procedure:
as §2

≈ marks a conversion by molar mass, not a printed value. Bounds are passed on as bounds.

What is called MIC is the lowest concentration found to suppress growth. A lower MIC goes with greater potency. Turning to `C/C(=C/C=C/C=C/C(C)C(=O)O)NC(=O)CC(O)\C(C)=C/C=C\C=C(C)\C=C\C=C/C=C/CNC(=O)C(O)CC(C)C` (stereo not shown) [Bacillaene, bacillaene], the MIC in [1] came out at 37.0 µg/mL (≈ 63.7 µM); in [2] it was 0.09 µg/mL (≈ 0.155 µM); in test [3], 5.0 µg/mL (≈ 8.61 µM); in test [4], 0.60 µg/mL (≈ 1.03 µM); in [5], 0.50 µg/mL (≈ 0.861 µM). Also, the “potency against certain strains of Escherichia coli (in words)” value in test [6] is on record as “extremely potent”. Moreover, in test [7] (35S incorporation into trichloroacetic-acid-precipitable polypeptides), the “inhibition of procaryotic protein synthesis (in words)” value is recorded as “potent inhibitor of procaryotic protein synthesis”. The “Inhibition of in vitro protein synthesis, procaryotic in vitro transc.-transl. sys.” value was more than 88.0% in test [7] (final conc. 0.75 μg/ml) and more than 95.0% in [7] (final conc. 1.5 μg/ml). Further, in test [8] (at the concentrations tested), the “inhibition of eucaryotic in vitro protein translation system (in words)” value is given as “failed to inhibit”. Further, the “Inhibition of in vitro protein synthesis, rabbit reticulocyte in vitro trans. sys.” value in test [8] (final conc. 0.75 μg/ml), in test [8] (final conc. 1.5 μg/ml) and in test [8] (final conc. 6.0 μg/ml) was less than 7.0% throughout. In [9], the “effect on growth of eukaryotic cells (in words)” value is on record as “not observed to affect the growth”. Further, the “Growth Inhibition” value in test [10] and in [11] was “++ (hazy)” each time.
